Starred links: 1 amine or outer side, 2 acyl side, 3 side chain; linkers in the order of their positions; H or OH if unused. Positions of bridges follow the written chain, without caps; N, C: chain ends. Non-standard residues stand in square brackets, D forms with d. Residues, ends and D or L forms follow the SMILES beside them. Groups on a side chain read outwards from the residue. *: point of attachment. C20 diacid = O=C(O)CCCCCCCCCCCCCCCCCCC(=O)*; Trp(1-Me) = Cn1cc(C[C@H](N)C(=O)O)c2ccccc21; Abu(4-yl) = O=C([C@H](CC[*:3])N[*:1])[*:2]; C18 diacid = O=C(O)CCCCCCCCCCCCCCCCC(=O)*; γGlu = O=C(O)[C@H](CCC(=O)[*:2])N[*:1]; AEEA = NCCOCCOCC(=O)O; Aoc = NCCCCCCCC(=O)O; Sar = CNCC(=O)O

As a reminder, the IC50 is the point on the concentration scale where inhibition reaches its midpoint.

This experiment has as its system classical complement pathway. The experiment is described as follows: In vitro haemolysis assay (inhibition of classical complement pathway). The following applies: Table 3; human serum, sensitized sheep red blood cells; read-out: IC50[nM], in vitro analysis of inhibition of hemolysis. The class given is cell-based, human. In outline:
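Serially diluted compound (9 points) was preincubated 15 min at room temperature with diluted human serum, titrated per batch to give 70-90% maximal haemolysis, in Tris/casein buffer pH 7.4 with Mg2+/Ca2+. Antibody-sensitized sheep erythrocytes were then added for 30 min at 37° C, and the reaction was stopped with EDTA. Haemolysis was read at A405, with IC50 from 4PL fit.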
With `CC[C@H](C)[C@@H]1NC(=O)[C@@H](NC(=O)[C@H](Cc2ccccc2)NC(=O)[C@H](CCC(=O)O)NC(=O)[C@H](CO)NC(C)=O)CSCC[C@@H](C(=O)N(C)CC(=O)N[C@@H](CCC(=O)O)C(=O)NCC(=O)N[C@@H](C)C(=O)N[C@@H](CCCCNC(=O)COCCOCCNC(=O)CC[C@H](NC(=O)COCCOCCNC(=O)CNC(=O)CC[C@H](NC(=O)CCCCCCCCCCCCCCCCC(=O)O)C(=O)O)C(=O)O)C(N)=O)NC(=O)[C@H](CCCNC(=N)N)NC(=O)[C@H](Cc2c[nH]cn2)NC(=O)[C@H](CCC(=O)O)NC(=O)CNC(=O)[C@H](Cc2c[nH]c3ccccc23)NC(=O)[C@H](CC(=O)O)NC(=O)[C@H](CCC(N)=O)NC(=O)[C@H](Cc2cn(C)c3ccccc23)NC1=O` [Compound 154, Ac-SEFA(1)I[1-Me-Trp]QDWGEHRhC(1)[Sar]EGA-K([17-carboxy-heptadecanoyl][γGlu]G[Peg3][γGlu][Peg3])-NH2] (Ac-SEFCI[Trp(1-Me)]QDWGEHR[Abu(4-yl)][Sar]EGAK([AEEA-γGlu-AEEA-Gly-γGlu-C18 diacid])-NH2; thioether 4-14), the IC50 was below 100 nM. Next, `CC[C@H](C)[C@@H]1NC(=O)[C@@H](NC(=O)[C@H](Cc2ccccc2)NC(=O)[C@H](CCC(=O)O)NC(=O)CNC(C)=O)CSCC[C@@H](C(=O)N(C)CC(=O)N[C@@H](CCC(=O)O)C(=O)NCC(=O)N[C@@H](CCC(=O)O)C(=O)NCCOCCOCC(=O)N[C@@H](CCC(=O)O)C(=O)N[C@@H](CO)C(=O)N[C@@H](CCCCNC(=O)CC[C@H](NC(=O)CNC(=O)CC[C@H](NC(=O)CCCCCCCCCCCCCCCCC(=O)O)C(=O)O)C(=O)O)C(N)=O)NC(=O)[C@H](CCCNC(=N)N)NC(=O)[C@H](Cc2c[nH]cn2)NC(=O)[C@H](CCC(=O)O)NC(=O)CNC(=O)[C@H](Cc2c[nH]c3ccccc23)NC(=O)[C@H](CCC(=O)O)NC(=O)[C@H](CCC(N)=O)NC(=O)[C@H](Cc2cn(C)c3ccccc23)NC1=O` [Compound 155, Ac-GEFA(1)I[1-Me-Trp]QEWGEHRhC(1)[Sar]EGE[Peg3]ES-K([17-carboxy-heptadecanoyl][γGlu]G[γGlu])-NH2] (Ac-GEFCI[Trp(1-Me)]QEWGEHR[Abu(4-yl)][Sar]EGE[AEEA]ESK([γGlu-Gly-γGlu-C18 diacid])-NH2; thioether 4-14): below 100 nM; `CC[C@H](C)[C@@H]1NC(=O)[C@@H](NC(=O)[C@H](Cc2ccccc2)NC(=O)[C@H](CCC(=O)O)NC(=O)[C@H](CO)NC(C)=O)CSSC[C@@H](C(=O)N[C@H](C(=O)N[C@@H](CCC(=O)O)C(=O)NCC(=O)N[C@@H](CCC(=O)O)C(=O)NCCCCCCCC(=O)N[C@@H](CCC(=O)O)C(=O)N[C@@H](CCCCNC(=O)CC[C@H](NC(=O)CNC(=O)CC[C@H](NC(=O)CCCCCCCCCCCCCCCCC(=O)O)C(=O)O)C(=O)O)C(N)=O)[C@@H](C)O)NC(=O)[C@H](CCCNC(=N)N)NC(=O)[C@H](Cc2c[nH]cn2)NC(=O)[C@H](CCC(=O)O)NC(=O)CNC(=O)[C@H](Cc2c[nH]c3ccccc23)NC(=O)[C@H](CC(=O)O)NC(=O)[C@H](CCC(N)=O)NC(=O)[C@H](Cc2cn(C)c3ccccc23)NC1=O` [Compound 137] (Ac-SEFCI[Trp(1-Me)]QDWGEHRCTEGE[Aoc]EK([γGlu-Gly-γGlu-C18 diacid])-NH2; disulfide 4-14): below 100 nM; `CC[C@H](C)[C@H](NC(C)=O)C(=O)N[C@H]1CSSC[C@@H](C(=O)N[C@H](C(=O)N[C@@H](CCC(=O)O)C(=O)NCC(=O)N[C@@H](CCCCNC(=O)COCCOCCNC(=O)COCCOCCNC(=O)CC[C@H](NC(=O)CCCCCCCCCCCCCCCCCCC(=O)O)C(=O)O)C(N)=O)[C@@H](C)O)NC(=O)[C@H](CCCNC(=N)N)NC(=O)[C@H](Cc2c[nH]cn2)NC(=O)[C@H](CCC(=O)O)NC(=O)CNC(=O)[C@H](Cc2c[nH]c3ccccc23)NC(=O)[C@H](CC(=O)O)NC(=O)[C@H](CCC(N)=O)NC(=O)[C@H](Cc2c[nH]c3ccccc23)NC(=O)[C@H]([C@@H](C)CC)NC1=O` [Compound 98] (Ac-ICIWQDWGEHRCTEGK([AEEA-AEEA-γGlu-C20 diacid])-NH2; disulfide 2-12): below 500 nM.

The record behind these values is patent US20220306695A1, “COMPSTATIN ANALOGUES AND THEIR MEDICAL USES” (priority 2019, published 2022).
